Measured values reported in US6472415B1, “Androgen receptor suppressors in the therapy and diagnosis of prostate cancer, alopecia and other hyper-androgenic syndromes” (priority 1998, dated 2002).
Like-named read-outs stand apart in the source and are kept apart here.

Key:
[1] = Systemic toxicity, repeated i.p. injection in mice; assay type: in vivo; conditions: i.p.
Description: Systemic toxicity was orientationally evaluated by i.p. injection every 2nd day in mice. […] For BP-34, the corresponding values were 150 mg/kg bw and 300 mg/kg bw.
The maximum tolerated dose should thus be approximately 300 mg/kg. For BP-34, i.p. injections of 100-300 mg/kg produce no mortalities in mice. […] Therefore, the maximum tolerated dose of BP-34 should be approximately 250 mg/kg.

[2] = four rabbits, topically twice daily (0.6 mg/kg-day), ten days; limit of detection approximately 10 ng/ml
Description: (§1) Serum samples were collected at 2, 5 and 21 hours after the first application, and once every other day, thereafter. Serum samples were processed and analyzed by HPLC.

[3] = rabbits, topical twice daily, ten days
Description: as §1
The rabbits were also observed daily for signs of cutaneous irritation.

[4] = probit analysis
[5] = male and female Wistar rats, highest dose tested
AR = target: T1, AR (Homo sapiens, UniProt P10275); experiment: Interaction of non-radioactive iodine compounds with AR; conditions: compounds containing non-radioactive iodine
T1 sequence (P10275 1-920): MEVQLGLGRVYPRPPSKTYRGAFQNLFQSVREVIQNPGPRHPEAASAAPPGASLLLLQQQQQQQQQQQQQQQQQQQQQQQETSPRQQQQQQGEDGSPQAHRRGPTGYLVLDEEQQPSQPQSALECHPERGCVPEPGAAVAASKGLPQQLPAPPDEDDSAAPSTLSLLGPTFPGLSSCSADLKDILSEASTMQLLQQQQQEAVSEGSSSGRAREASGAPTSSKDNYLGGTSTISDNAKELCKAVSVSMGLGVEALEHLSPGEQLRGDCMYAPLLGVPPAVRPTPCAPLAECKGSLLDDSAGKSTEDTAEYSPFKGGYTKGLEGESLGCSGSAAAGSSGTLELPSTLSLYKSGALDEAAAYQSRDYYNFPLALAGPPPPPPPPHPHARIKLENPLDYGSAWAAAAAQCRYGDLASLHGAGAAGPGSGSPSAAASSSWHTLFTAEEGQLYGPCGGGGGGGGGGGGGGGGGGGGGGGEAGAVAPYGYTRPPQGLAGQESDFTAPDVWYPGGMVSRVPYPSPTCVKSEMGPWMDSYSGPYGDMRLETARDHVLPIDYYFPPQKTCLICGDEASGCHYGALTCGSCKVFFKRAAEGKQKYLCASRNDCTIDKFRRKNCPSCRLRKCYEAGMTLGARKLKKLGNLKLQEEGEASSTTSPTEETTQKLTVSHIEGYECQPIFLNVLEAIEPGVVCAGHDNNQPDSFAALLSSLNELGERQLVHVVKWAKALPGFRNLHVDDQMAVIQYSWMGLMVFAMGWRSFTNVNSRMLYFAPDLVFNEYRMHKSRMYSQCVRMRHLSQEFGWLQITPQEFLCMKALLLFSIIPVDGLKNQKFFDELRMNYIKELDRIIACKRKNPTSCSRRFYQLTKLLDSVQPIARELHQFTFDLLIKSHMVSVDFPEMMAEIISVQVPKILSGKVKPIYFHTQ

[6] = Permadi et al. 1993; cited from earlier work

CC(O)(CNC(=O)C(F)(F)F)C(=O)Nc1ccc([N+](=O)[O-])c(C(F)(F)F)c1 (stereo not shown) [BP-766, 4-nitro-3-trifluoromethyl-N-(2′-hydroxy-2′-methyl-3′-N-(trifluoromethylamido)propionyl) aniline]
Maximum tolerated dose [1]: approximately 300 mg/kg
LD50 (daily dose for seven days that resulted in 50% mortality) ([1]; daily for seven days): 450 mg/kg bw
BP-766 and/or BP-34 in serum after topical application [2]: No. BP-766 or BP-34 were found in any of the samples
Signs of cutaneous irritation [3]: No signs of irritation
Effect on effluvium of the frontal hairline (androgenic alopecia; six volunteers (4 male, 2 female), 2% solution, 1 ml twice daily, after 2 weeks): arrested the effluvium of the frontal hairline in all six volunteers
Dermal irritation (androgenic alopecia; six volunteers, 2% solution in anhydrous isopropanol, 1 ml twice daily (0.6 mg/kg), 8 weeks): no dermal irritation
Regrowth (androgenic alopecia; two volunteers, after 4 months use): evident regrowth
% BP-766 (60/40 EtOH/H2O, 55° C., 0 hours): 100%
% BP-766 (60/40 EtOH/H2O, 55° C., 24 hours): 98.1%
% BP-766 (60/40 EtOH/H2O, 55° C., 48 hours): 98.2%
% BP-766 (60/40 EtOH/H2O, RT, 0 hours): 100%
% BP-766 (60/40 EtOH/H2O, RT, 24 hours): 99.9%
% BP-766 (60/40 EtOH/H2O, RT, 48 hours): 99.69%
% BP-766 (Isopropanol (3-5% water), 55° C., 0 hours): 100%
% BP-766 (Isopropanol (3-5% water), 55° C., 6 hours): 99.6%
% BP-766 (Isopropanol (3-5% water), 55° C., 24 hours): 99.1%
% BP-766 (Isopropanol (3-5% water), 55° C., 144 hours): 98.7%
% BP-766 (anhydrous isopropanol, 50° C., 0 weeks): 100%
% BP-766 (anhydrous isopropanol, 50° C., 1 week): 99.6%
% BP-766 (anhydrous isopropanol, 50° C., 2 weeks): 99.4%
% BP-766 (anhydrous isopropanol, 50° C., 3 weeks): 99.3%
% BP-766 (anhydrous isopropanol, 50° C., 4 weeks): 99.2%
% BP-766 (anhydrous isopropanol, 50° C., 5 weeks): 98.9%
% BP-766 (anhydrous isopropanol, 50° C., 6 weeks): 98.8%
% BP-766 (anhydrous isopropanol, 50° C., 7 weeks): 98.3%
% BP-766 (anhydrous isopropanol, 50° C., 8 weeks): 98.4%
LD50, acute oral ([4]; female NMRI mice): 2232.0 mg/kg
LD50, acute oral ([4]; male NMRI mice): 2871.7 mg/kg
LD50, acute oral [5]: > 2500 mg/kg body weight

CC1(C)C(=O)N(c2ccc(C#N)c(C(F)(F)F)c2)C(=S)N1C/C=C/I [BP-305, 4-[3′-trans-(2″-propenyl-3″-iodo)-4′,4′-dimethyl-5′-oxo-2′-thioxo-1-imidazolidinyl]-2-trifluoromethylbenzonitrile]
Interaction with AR as compared to controls (AR): shown to interact with AR

O=C(O)C(F)(F)F [trifluoroacetic acid]
Toxicity when fed to mice [6]: no toxicity
